Source: patent US6203822A, “Gallium-containing compounds for the treatment of infections caused by intracellular pathogens and pathogens causing chronic pulmonary infection” (priority 1996, dated 2001)

Assays:
[1] = tested on: M. tuberculosis strain H37Ra; assay: Radiometric BACTEC growth index assay of M. tuberculosis in broth culture, gallium nitrate; format: cell-based; conditions: BACTEC 12B
Description: FIG. 1 provides histograms that illustrate the inhibitory effect of gallium nitrate on M. tuberculosis in broth culture. […] FIG. 1B illustrates the results of experiments to inhibit M. tuberculosis strain H37Ra in broth culture over the range of 0 to 1040 μM concentrations gallium nitrate.
Example 1 details methods for performing the growth index assays of this invention to detect the growth of pathogenic organisms including M. tuberculosis in suspension culture. There are a number of suspension culture methods known in the art. As an example of a suspension assay, M. tuberculosis growth and gallium nitrate inhibition were quantitated using the radiometric BACTEC 460TB system (Becton Dickinson Diagnostic Instrument Systems, Sparks, Md.). […] While this and other examples are directed to the inhibition of Mycobacteria, those skilled in the art will recognize that the assays are readily adaptable to the quantitation of other intracellular bacterial pathogens capable of infecting phagocytic cells. Growth inhibition of parasites or fungi can also be readily assessed by introducing the gallium-containing compounds into cultures of the organisms under standard growth conditions.
Lyophilized M. tuberculosis Erdman strain (ATCC #35801) and H37Ra (ATCC #25177) were reconstituted in pyogen-free water (Sigma, St. Louis, Mo.), plated on 7H11 agar plates, incubated at 37° C. in 5% CO2, 95% air, and after 14 days of culture, harvested and frozen in 7H9 broth at -70° C. […] An aliquot of this suspension was diluted in formalin, counted and diluted to appropriate concentrations for use in experiments. […] The figures illustrate the recorded numbers from bottles on different days which correlate with growth index readings for the various concentrations of gallium nitrate at Day 6.
The BACTEC system (Becton Dickinson, Sparks, Md.) is an instrument to quantitate bacterial growth. […] During quantitation in the BACTEC instrument, the gas is aspirated from the vial and the ^14 CO2 radioactivity is determined on a scale from 0 to 999. […]

[2] = tested on: M. tuberculosis strain H37Ra; format: cell-based
[3] = tested on: macrophage monolayers (MDMs); assay: Gallium toxicity in uninfected MDM monolayers; format: cell-based, human; conditions: naphthol blue stained nuclei count, read-out: gallium concentration up to which no immediate difference in monolayer density
Description: To test the potential toxicity of gallium nitrate on the standard macrophage monolayers (MDMs) used in the assays described in this invention, uninfected MDM monolayers were incubated with various concentrations of gallium nitrate in the range used in the studies described in Examples 2 and 3.
There was no immediate difference in monolayer density between MDM monolayers with and without gallium nitrate treatment up to a gallium concentration of 2 mM. Results were based on counting napthol blue macrophage stained nuclei from the monolayer. These numbers directly correlate with the number of cells present. In most cases the integrity of the MDM monolayer in the presence of gallium was maintained for up to 37 days, equivalent to untreated, uninfected control cultures.

[4] = tested on: Leishmania chagasi promastigotes; assay: Inhibition of Leishmania chagasi promastigote growth; format: cell-based
Description: Visceral leishmaniasis, the most serious form of human disease cause by Leishmania species, is fatal if untreated. Currently available treatment regimes suffer from both suboptimal efficacy and considerable toxicity. […] Leishmania chagasi, the cause of visceral leishmaniasis requires iron for growth and can obtain that iron from human transferrin, lactoferrin and hemin. When incubated in an in vitro culture system (using the culture methods of Wilson et al. Infect. Immun. 62:3262-3269, 1994), L. chagasi promastigotes were inhibited by the presence of gallium nitrate in a concentration dependent manner with inhibition observed at about at least 500 μM and higher (see Example 14 and FIG. 9).
Amastigotes were isolated from the spleens of infected hamsters and allowed to convert to promastigotes by cultivation in a modified minimal essential medium (HOMEM) with 10% heat inactivated fetal calf serum and hemin (8 μM). Parasites were used within 21 days of isolation from an infected hamster. Promastigote cultures were seeded at 10^6 promastigotes per ml and used after 2 to 3 days in logarithmic phase or 5 to 7 days in stationary phase of growth. During growth studies with gallium nitrate, promastigotes were suspended in iron-containing HOMEM to allow for organism growth. […]

[5] = tested on: P. aeruginosa strain PA01; assay: Growth inhibition of P. aeruginosa in iron-supplemented succinate medium; format: cell-based; conditions: for A600 (growth): 1 μM ferric chloride, 7 h, control A600=0.297
Description: In another embodiment of this invention, P. aeruginosa, the principle cause of chronic lung infections in patients with cystic fibrosis, was also determined to be susceptible to gallium-containing compounds. The PA01 strain of P. aeruginosa only grew in an iron-restricted succinate based broth medium (Cox, CD. Infect. Immun. 52:263-270, 1986) that included exogenous Ferric chloride or iron chelated to either of the siderophores pyochelin or pyoverdin at concentrations of 1 μM or greater. The addition of gallium nitrate to the iron supplemented medium inhibited P. aeruginosa growth (see Example 15). Growth was measure by monitoring the culture medium absorbance at 600 nm.
P. aeruginosa strain PA01 was suspended in succinate-based medium (Cox, C. D., Infect. Immun. 52:262-270, 1986) to an optical density of approximately 0.040 at 600 nm in the absence (negative control) or presence of 1 μM ferric chloride (positive growth control). To some aliquots of both positive and negative control conditions, gallium nitrate was added at varying concentrations. The bacterial suspensions were placed at 37° C. for 7 h and growth was determined by measuring absorbance at 600 nm. […] With the inclusion of ferric chloride the concentration of organisms increased nearly eight fold A600=0.297).

[6] = tested on: infected and uninfected cells; conditions: read-out: concentration not toxic in vitro

With O=[N+]([O-])[O-].O=[N+]([O-])[O-].O=[N+]([O-])[O-].[Ga+3] [gallium nitrate] the inhibition of growth [1] was “markedly inhibits the growth of M. tuberculosis”, the “concentration with marked inhibition of growth” value ([1]; radiometric) was “approximately 100 μM” and the “concentration with statistically significant inhibition of growth” value ([1]; radiometric) was 16.25 µM. For the same compound, the “concentration with marked inhibition of growth (comparison with gallium transferrin)” value [2] was 100 µM, the MNTC [3] was at least 2 mM and the “concentration at which inhibition was observed” value ([4]; L. chagasi promastigotes) was “at least 500 μM”. The “inhibition of promastigote growth” value ([4]; about 250 μM to about 2 mM, about 24 to about 120 hrs) was “significantly inhibited”, the “growth inhibition in words” value ([5]; 1 μM gallium nitrate) was “Slight inhibition” and the “A600 (growth)” value ([5]; 1 μM gallium nitrate) was 0.270. For the same compound, the decrease of growth ([5]; 10 μM gallium nitrate) was “more than 50%”, the “A600 (growth)” value ([5]; 10 μM gallium nitrate) was 0.130 and the “P. aeruginosa growth inhibition” value ([5]; 100 μM and 10 μM gallium nitrate, ferric chloride supplemented) was “Significant inhibition”. For the same compound, the “growth inhibition in words” value ([5]; 100 μM gallium nitrate) was “completely inhibited”, the “A600 (growth)” value ([5]; 100 μM gallium nitrate) was 0.043 and the MNTC [6] was 1 mM.
